According to US20070292512A1, “Solid Oral Dosage Form Containing an Enhancer” (priority 2006, published 2007):
Entries after “also recorded” stand apart in the source; their conditions may differ.

Columns and labels:
[1] = test system: Caco-2 monolayers; assay: TEER in Caco-2 monolayers; format: cell-based; conditions: sodium salts at concentrations of Table 1, with 3H-TRH, over 2 hours
Experimental: (§1) Cell Culture: Caco-2 cells were cultured in Dulbecco's Modified Eagles Medium (DMEM) 4.5 g/L glucose supplemented with 1% (v/v) non-essential amino acids; 10% fetal calf serum and 1% penicillin/streptomycin. […] The cells were grown and expanded in standard tissue culture flasks and were passaged once they attained 100% confluence. The Caco-2 cells were then seeded on polycarbonate filter inserts (Costar; 12 mm diameter, 0.4 μm pore size) at a density of 5×10^5 cells/cm^2 and incubated in six well culture plates with a medium change every second day. Confluent monolayers between day 20 and day 30 seeding on filters and at passages 30-40 were used throughout these studies.
(§2) The transport experiments were performed in Hank's Balanced Salt Solution (HBSS) containing 25 mM N-[2-hydroxyethyl]-piperazine-N′-[2-ethanesulfonic acid] (HEPES) buffer, pH 7.4 at 37° C. Due to variations in solubilities, various concentrations of the different MCFA sodium salts and various apical buffers were used as shown in Table 1. In all cases the basolateral chamber contained regular HBSS+HEPES.
(§3) After removing the cell culture medium, the monolayers were placed in wells containing pre-warmed HBSS (37° C.); 1 ml apically and 2 ml basolaterally. Monolayers were incubated at 37° C. for 30 minutes. Then at time zero, apical HBSS was replaced with the relevant apical test solution containing the radio-labeled compounds with and without the enhancer compound. […] The plates were placed on an orbital shaker in an incubator (37° C.). […] At each 30-minute interval, each insert was transferred to a new well containing 2 ml fresh pre-warmed HBSS. […] Mean values for ^3H-TRH concentrations were calculated for the apical and basolateral solutions at each time point.

[2] = test system: Caco-2 monolayers; assay: 3H-TRH transepithelial transport (Papp) in Caco-2 monolayers; format: in vitro ADME; conditions: sodium salts at concentrations of Table 1
Experimental: as §1, §2, §3

[3] = Closed loop rat model, intraduodenal TRH with enhancer, serum TRH; format: in vivo, Male Wistar rats; conditions: intraduodenal bolus 500 or 1000 μg TRH with 35 mg enhancer
Experimental: Male Wistar rats (weight range 250 g-350 g) were anaesthetized with ketamine hydrochloride/acepromazine. […] All intraduodenal dose volumes (for samples and control) were 1 ml/kg. The proximal end of the segment was ligated, and the loop was sprayed with isotonic saline (37° C.) to provide moisture and then replaced in the abdominal cavity avoiding distension. The incision was closed with surgical clips. A group of animals were administered TRH in PBS (100 μg in 0.2 ml) by subcutaneous injection as a reference.

[4] = test system: anti-factor Xa activity; assay: Dog study of oral heparin tablets, anti-factor Xa; format: in vivo; conditions: IR formulations, equivalent dose of heparin, dogs
Experimental: Tablets from batches 3, 7 and 15 in Tables 5 and 6 above were dosed orally to groups of five dogs in a single dose crossover study. […] Blood samples for anti-factor Xa analysis were collected from the jugular vein at various time points.

[5] = Closed-loop rat segment, intraileal USP heparin, APTT response; format: in vivo; conditions: USP heparin 1000 iu intraileal, sodium caprate 10 and 35 mg
Source text: APTT measurements were taken at various time points.

[6] = test system: anti-factor Xa activity; assay: Closed-loop rat segment, intraileal USP heparin, anti-factor Xa response; format: in vivo; conditions: USP heparin 1000 iu
[7] = dog, in vivo
Experimental: Beagle dogs (10-15 Kg) were sedated with medetomidine (80 μg/kg) and an endoscope was inserted via the mouth, esophagus, and stomach into the duodenum. The test solutions (10 ml) comprising leuprolide acetate (Mallinckrodt Inc, St. Louis, Mo.) with or without enhancer reconstituted in deionized water were administered intraduodenally via the endoscope. Following removal of the endoscope, sedation was reversed using atipamezole (400 μg/kg). The parenteral reference solutions comprising 1 mg Leuprolide reconstituted in 0.5 ml sterile water were administered intravenously and subcutaneously respectively.

[8] = test system: HDAC; conditions: compared to romidepsin; cited from earlier work
[9] = test system: HDAC6; conditions: cited from earlier work
[10] = biological target: HDAC4 (Homo sapiens, UniProt P56524); conditions: cited from earlier work
HDAC4, sequence (P56524 whole entry, species assumed): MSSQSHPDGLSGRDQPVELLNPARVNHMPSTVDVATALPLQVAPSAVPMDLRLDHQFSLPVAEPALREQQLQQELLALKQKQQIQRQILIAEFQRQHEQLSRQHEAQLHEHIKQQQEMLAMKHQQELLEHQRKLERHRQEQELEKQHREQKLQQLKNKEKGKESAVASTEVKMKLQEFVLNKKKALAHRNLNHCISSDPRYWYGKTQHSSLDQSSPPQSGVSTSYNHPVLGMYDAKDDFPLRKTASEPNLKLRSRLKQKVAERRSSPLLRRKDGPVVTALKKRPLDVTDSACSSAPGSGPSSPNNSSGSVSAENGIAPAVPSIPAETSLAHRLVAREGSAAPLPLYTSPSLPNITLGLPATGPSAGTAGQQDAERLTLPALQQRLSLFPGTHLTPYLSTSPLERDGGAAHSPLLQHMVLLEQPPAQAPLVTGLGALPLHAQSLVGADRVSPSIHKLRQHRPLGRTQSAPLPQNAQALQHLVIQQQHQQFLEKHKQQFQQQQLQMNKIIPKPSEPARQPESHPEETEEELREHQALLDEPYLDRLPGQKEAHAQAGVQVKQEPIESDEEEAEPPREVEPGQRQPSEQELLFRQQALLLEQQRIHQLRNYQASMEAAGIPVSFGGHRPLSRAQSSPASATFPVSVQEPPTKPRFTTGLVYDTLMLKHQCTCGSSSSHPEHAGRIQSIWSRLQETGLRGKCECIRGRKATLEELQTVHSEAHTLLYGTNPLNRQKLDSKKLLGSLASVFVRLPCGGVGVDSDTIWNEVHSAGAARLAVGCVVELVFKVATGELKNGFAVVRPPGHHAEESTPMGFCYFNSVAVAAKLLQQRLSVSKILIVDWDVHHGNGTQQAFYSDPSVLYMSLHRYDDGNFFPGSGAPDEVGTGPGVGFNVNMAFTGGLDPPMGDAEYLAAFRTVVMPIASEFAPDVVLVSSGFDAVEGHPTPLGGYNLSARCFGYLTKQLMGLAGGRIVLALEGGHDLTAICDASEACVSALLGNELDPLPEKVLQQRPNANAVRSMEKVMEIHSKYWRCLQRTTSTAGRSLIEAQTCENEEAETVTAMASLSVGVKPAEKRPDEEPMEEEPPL

[11] = cited from earlier work
[12] = biological target: HDAC1 (Homo sapiens, UniProt Q13547); conditions: range stated for each enzyme; cited from earlier work
HDAC1, sequence (Q13547 whole entry): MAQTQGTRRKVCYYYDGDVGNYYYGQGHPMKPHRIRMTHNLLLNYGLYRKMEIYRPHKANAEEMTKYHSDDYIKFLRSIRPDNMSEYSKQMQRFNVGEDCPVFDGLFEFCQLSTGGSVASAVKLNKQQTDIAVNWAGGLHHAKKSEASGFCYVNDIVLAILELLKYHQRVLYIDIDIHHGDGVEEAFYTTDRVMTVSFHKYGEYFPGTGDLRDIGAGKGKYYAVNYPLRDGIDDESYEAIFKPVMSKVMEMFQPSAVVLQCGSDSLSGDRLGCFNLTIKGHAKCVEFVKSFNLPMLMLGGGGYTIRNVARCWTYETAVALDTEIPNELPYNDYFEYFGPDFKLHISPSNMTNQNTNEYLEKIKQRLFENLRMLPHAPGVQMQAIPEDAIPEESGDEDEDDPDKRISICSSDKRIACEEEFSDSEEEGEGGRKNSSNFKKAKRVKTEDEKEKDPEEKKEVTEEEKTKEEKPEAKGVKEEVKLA

[13] = in vivo; set-up: species or system beagle dogs; conditions: beagle, dog
Experimental: The study was a single dose crossover study using from 2 to 5 dogs. Fasted animals were dosed weekly with an intravenous dose (reference) or one of three experimental romidepsin formulations administered directly into the duodenum via a surgically implanted cannula. In all cases the administered dose was 0.1 mg/kg body weight. Blood samples were obtained at selected time intervals post dosing and plasma was shipped to Japan Clinical Laboratories (JCL) for romidepsin analyses. Upon receipt of bioanalytical data from JCL, the individual animal plasma data were loaded into an Excel spreadsheet (Microsoft® Office Excel 2003) and the following pharmacokinetic parameters were calculated from the concentration-time data for each subject: Cmax, Tmax, T1/2, AUC(0-t) and % Bioavailability (% F). Pharmacokinetic parameters were calculated using macros written for Excel (Usansky et al., PK Functions for Microsoft Excel (1999) available at: www.boomer.org/[…].doc).

[14] = test system: human tumor xenografts and murine tumors; conditions: human tumor xenografts and murine tumors in mouse models; cited from earlier work

Compound: CCCCCCCCCCCC(=O)[O-].[Na+] [Batch C12, sodium laurate]
- effect on TEER compared to the control [1]: some cell damage (reduction in TEER)
- Papp for 3H-TRH compared to the control [2]: considerable increases

Compound: CCCCCCCCCCCCCC(=O)[O-].[Na+] [Batch C14]
- effect on TEER compared to the control [1]: minimal reduction in TEER
- Papp for 3H-TRH compared to the control [2]: considerable increases

Compound: CCCCCCCCCCCCCCCCCC(=O)[O-].[Na+] [Batch C18]
- effect on TEER compared to the control [1]: minimal reduction in TEER

Compound: CCCCCCCC(=O)[O-].[Na+] [NaC8, sodium caprylate]
- serum levels of TRH over the control TRH solution [3]: significantly increases the serum levels of TRH

Compound: CCCCCCCCCC(=O)[O-].[Na+] [NaC10, sodium caprate]
- serum levels of TRH over the control TRH solution [3]: significantly increases the serum levels of TRH
- effect on TEER compared to the control [1]: minimal reduction in TEER
- Papp for 3H-TRH compared to the control [2]: considerable increases
- anti-factor Xa response, NaC10 versus NaC8 enhancer [4]: larger anti-factor Xa response
- heparin absorption by APTT response vs control heparin solution [5]: significant increase in absorption
- anti-factor Xa activity relative to control heparin solution ([6]; enhancer 10 mg dose): significant increase in anti-factor Xa activity
- anti-factor Xa activity relative to control heparin solution ([6]; enhancer 35 mg dose): significant increase in anti-factor Xa activity

Compound: CCNC(=O)[C@@H]1CCCN1C(=O)[C@H](CCCNC(=N)N)NC(=O)[C@H](CC(C)C)NC(=O)[C@@H](CC(C)C)NC(=O)[C@H](Cc1ccc(O)cc1)NC(=O)[C@H](CO)NC(=O)[C@H](Cc1c[nH]c2ccccc12)NC(=O)[C@H](Cc1c[nH]cn1)NC(=O)[C@@H]1CCC(=O)N1 [leuprolide, leuprolide acetate]
- systemic delivery of leuprolide on coadministration with enhancer [7]: considerable enhancer dose dependent enhancement
- systemic delivery of leuprolide without enhancer [7]: negligible

Compound: C/C=C1\NC(=O)[C@@H](CS)NC(=O)[C@@H](C(C)C)NC(=O)C[C@@H](/C=C/CCS)OC(=O)[C@H](C(C)C)NC1=O [redFK]
- inhibiting in vivo HDAC activity [8]: less active compared to romidepsin
- inhibitory effect against HDAC6 ([9]; low nanomolar concentrations): relatively weak; also recorded: almost insensitive
- inhibitory effect against HDAC4 ([10]; low nanomolar concentrations): relatively weak
- stability in medium and serum [11]: rapid inactivation

Compound: C/C=C1\NC(=O)[C@H]2CSSCC/C=C/[C@H](CC(=O)N[C@H](C(C)C)C(=O)N2)OC(=O)[C@H](C(C)C)NC1=O [romidepsin, (1S,4S,10S,16E,21R)-7-[(2Z)-ethylidene]-4,2,1-diisopropyl-2-oxa-12,13-dithia-5,8,20,23-tetraazabicyclo[8.7.6]tricos-16-ene-3,6,9,19,22-pentanone]
- times weaker than redFK in inhibiting HDAC1 [12]: 17-23 times
- bioavailability [13]: ≤ 28%
- in vivo antitumor activity [14]: in vivo antitumor activity
- times weaker than redFK in inhibiting HDAC6 ([9]; range stated for each enzyme): 17-23 times
- times weaker than redFK in inhibiting HDAC4 ([10]; range stated for each enzyme): 17-23 times
- stability in medium and serum [11]: more stable than redFK
